Source: ChEMBL document CHEMBL5625252, “Synthesis of peptidomimetics as antibiotic adjuvants for combination with aztreonam to combat MDR Pseudomonas aeruginosa” (Eur J Med Chem, 2023)
Converted amounts (≈) assume the structure as drawn. The source made the active and inactive calls. The rule behind the calls is not given here.

How the values were obtained:
Pseudomonas aeruginosa [1] = test: Antibacterial activity against Pseudomonas aeruginosa 19-55 assessed as inhibition of bacterial growth incubated for 18 hrs by agar dilution method; type: functional
Pseudomonas aeruginosa [2] = test: Antibacterial activity against Pseudomonas aeruginosa 21-7 assessed as inhibition of bacterial growth incubated for 18 hrs by agar dilution method; type: functional
Pseudomonas aeruginosa [3] = test: Antibacterial activity against Pseudomonas aeruginosa 23-Y417 assessed as inhibition of bacterial growth incubated for 18 hrs by agar dilution method; type: functional; settings: read-out: MIC
Pseudomonas aeruginosa [4] = test: Antibacterial activity against Pseudomonas aeruginosa 23-Y372 assessed as inhibition of bacterial growth incubated for 18 hrs by agar dilution method; type: functional
Pseudomonas aeruginosa [5] = test: Antibacterial activity against Pseudomonas aeruginosa 21-8 assessed as inhibition of bacterial growth incubated for 18 hrs by agar dilution method; type: functional
Pseudomonas aeruginosa [6] = test: Antibacterial activity against Pseudomonas aeruginosa 19-46 assessed as inhibition of bacterial growth incubated for 18 hrs by agar dilution method; type: functional
Pseudomonas aeruginosa [7] = test: Antibacterial activity against Pseudomonas aeruginosa 13-3 assessed as inhibition of bacterial growth incubated for 18 hrs by agar dilution method; type: functional
Pseudomonas aeruginosa [8] = test: Antibacterial activity against Pseudomonas aeruginosa 23-Y122 assessed as inhibition of bacterial growth incubated for 18 hrs by agar dilution method; type: functional
Pseudomonas aeruginosa [9] = test: Antibacterial activity against Pseudomonas aeruginosa 16-11 assessed as inhibition of bacterial growth incubated for 18 hrs by agar dilution method; type: functional
Pseudomonas aeruginosa [10] = test: Antibacterial activity against Pseudomonas aeruginosa 12-1 assessed as inhibition of bacterial growth incubated for 18 hrs by agar dilution method; type: functional
Pseudomonas aeruginosa [11] = test: Antibacterial activity against Pseudomonas aeruginosa 13-17 assessed as inhibition of bacterial growth incubated for 18 hrs by agar dilution method; type: functional
Pseudomonas aeruginosa [12] = test: Antibacterial activity against Pseudomonas aeruginosa 23-Y364 assessed as inhibition of bacterial growth incubated for 18 hrs by agar dilution method; type: functional
Pseudomonas aeruginosa [13] = test: Antibacterial activity against Pseudomonas aeruginosa PAO1 assessed as inhibition of bacterial growth incubated for 18 hrs by agar dilution method; type: functional
Pseudomonas aeruginosa [14] = test: Antibacterial activity against Pseudomonas aeruginosa 13-35 assessed as inhibition of bacterial growth incubated for 18 hrs by agar dilution method; type: functional
Pseudomonas aeruginosa [15] = test: Antibacterial activity against Pseudomonas aeruginosa 23-Y539 assessed as inhibition of bacterial growth incubated for 18 hrs by agar dilution method; type: functional
Pseudomonas aeruginosa [16] = test: Antibacterial activity against Pseudomonas aeruginosa 16-2 assessed as inhibition of bacterial growth incubated for 18 hrs by agar dilution method; type: functional
Pseudomonas aeruginosa [17] = test: Antibacterial activity against Pseudomonas aeruginosa 21-2 assessed as inhibition of bacterial growth incubated for 18 hrs by agar dilution method; type: functional
Pseudomonas aeruginosa [18] = test: Antibacterial activity against Pseudomonas aeruginosa 23-Y511 assessed as inhibition of bacterial growth incubated for 18 hrs by agar dilution method; type: functional
Pseudomonas aeruginosa [19] = test: Antibacterial activity against Pseudomonas aeruginosa PAO1 infected in Galleria mellonella assessed as increase in larvae survival at 25 mg/kg measured every 12 hrs; type: functional, organism-based
Escherichia coli [20] = test: Antibacterial activity against ESBLs (+) Escherichia coli 16-1 assessed as inhibition of bacterial growth incubated for 18 hrs by agar dilution method; type: functional
Klebsiella pneumoniae [21] = test: Antibacterial activity against ESBLs (+) Klebsiella pneumoniae ATCC 700603 assessed as inhibition of bacterial growth incubated for 18 hrs by agar dilution method; type: functional
Pseudomonas aeruginosa [22] = test: Antibacterial activity against Pseudomonas aeruginosa 13-35 in CAMH broth medium supplemented with 20.99 to 21.09 mM Mg2+ by checkerboard assay; type: functional
Pseudomonas aeruginosa [23] = test: Antibacterial activity against Pseudomonas aeruginosa PAO1 in CAMH broth medium supplemented with 0.41 to 0.51 mM Mg2+ by checkerboard assay; type: functional
Pseudomonas aeruginosa [24] = test: Antibacterial activity against Pseudomonas aeruginosa 16-2 at 16 ug/ml measured upto 24 hrs by time-kill assay; type: functional, organism-based; settings: dose 16.0 µg/ml
Pseudomonas aeruginosa [25] = test: Antibacterial activity against Pseudomonas aeruginosa 12-1 in CAMH broth medium supplemented with 0.41 to 0.51 mM Mg2+ by checkerboard assay; type: functional
Klebsiella pneumoniae [26] = test: Antibacterial activity against ESBLs (+) Klebsiella pneumoniae 16-14 assessed as inhibition of bacterial growth incubated for 18 hrs by agar dilution method; type: functional
Klebsiella pneumoniae [27] = test: Antibacterial activity against NDM-1 (+) Klebsiella pneumoniae 2146 assessed as inhibition of bacterial growth incubated for 18 hrs by agar dilution method; type: functional
Pseudomonas aeruginosa [28] = test: Antibacterial activity against Pseudomonas aeruginosa 16-2 infected in Galleria mellonella assessed as larvae survival rate at 50 mg/kg after 96 hrs of innoculation; type: functional
Pseudomonas aeruginosa [29] = test: Antibacterial activity against Pseudomonas aeruginosa 13-35 in CAMH broth medium supplemented with 0.41 to 0.51 mM Mg2+ by checkerboard assay; type: functional
Pseudomonas aeruginosa [30] = test: Antibacterial activity against Pseudomonas aeruginosa 16-11 in CAMH broth medium supplemented with 20.99 to 21.09 mM Mg2+ by checkerboard assay; type: functional
Pseudomonas aeruginosa [31] = test: Antibacterial activity against Pseudomonas aeruginosa PAO1 at 2 ug/ml measured upto 24 hrs by time-kill assay; type: functional, organism-based; settings: dose 2.0 µg/ml
Pseudomonas aeruginosa [32] = test: Antibacterial activity against BL (+) Pseudomonas aeruginosa ATCC 27853 assessed as inhibition of bacterial growth incubated for 18 hrs by agar dilution method; type: functional
Escherichia coli [33] = test: Antibacterial activity against NDM-1 (+) Escherichia coli CDC 1001728 assessed as inhibition of bacterial growth incubated for 18 hrs by agar dilution method; type: functional
Escherichia coli [34] = test: Antibacterial activity against mcr-1 (+) Escherichia coli 08-85 assessed as inhibition of bacterial growth incubated for 18 hrs by agar dilution method; type: functional
Pseudomonas aeruginosa [35] = test: Antibacterial activity against Pseudomonas aeruginosa 16-11 in CAMH broth medium supplemented with 0.41 to 0.51 mM Mg2+ by checkerboard assay; type: functional
Pseudomonas aeruginosa [36] = test: Antibacterial activity against Pseudomonas aeruginosa PAO1 in CAMH broth medium supplemented with 20.99 to 21.09 mM Mg2+ by checkerboard assay; type: functional
Escherichia coli [37] = test: Antibacterial activity against ESBLs (-) Escherichia coli ATCC 25922 assessed as inhibition of bacterial growth incubated for 18 hrs by agar dilution method; type: functional
Klebsiella pneumoniae [38] = test: Antibacterial activity against NDM-1 (+) Klebsiella pneumoniae 09-20 assessed as inhibition of bacterial growth incubated for 18 hrs by agar dilution method; type: functional
Pseudomonas aeruginosa [39] = test: Antibacterial activity against Pseudomonas aeruginosa 12-1 in CAMH broth medium supplemented with 20.99 to 21.09 mM Mg2+ by checkerboard assay; type: functional

CC(C)(O/N=C(\C(=O)N[C@@H]1C(=O)N2C(C(=O)[O-])=C(C[n+]3ccccc3)CS[C@H]12)c1csc(N)n1)C(=O)O [CEFTAZIDIME]
MIC (Pseudomonas aeruginosa [1]): 128 µg/mL (≈ 234 µM)
MIC (Pseudomonas aeruginosa [2]): > 256 µg/mL
MIC (Pseudomonas aeruginosa [3]): 4 µg/mL (≈ 7.32 µM)
MIC (Pseudomonas aeruginosa [4]): > 256 µg/mL
MIC (Pseudomonas aeruginosa [5]): 1 µg/mL (≈ 1.83 µM)
MIC (Pseudomonas aeruginosa [6]): 128 µg/mL (≈ 234 µM)
MIC (Pseudomonas aeruginosa [7]): 64 µg/mL (≈ 117 µM)
MIC (Pseudomonas aeruginosa [8]): 256 µg/mL (≈ 468 µM)
MIC (Pseudomonas aeruginosa [9]): > 256 µg/mL
MIC (Pseudomonas aeruginosa [10]): 64 µg/mL (≈ 117 µM)
MIC (Pseudomonas aeruginosa [11]): 64 µg/mL (≈ 117 µM)
MIC (Pseudomonas aeruginosa [12]): 64 µg/mL (≈ 117 µM)
MIC (Pseudomonas aeruginosa [13]): 2 µg/mL (≈ 3.66 µM)
MIC (Pseudomonas aeruginosa [14]): 16 µg/mL (≈ 29.3 µM)
MIC (Pseudomonas aeruginosa [15]): 32 µg/mL (≈ 58.5 µM)
MIC (Pseudomonas aeruginosa [16]): 128 µg/mL (≈ 234 µM)
MIC (Pseudomonas aeruginosa [17]): 64 µg/mL (≈ 117 µM)
MIC (Pseudomonas aeruginosa [18]): 1 µg/mL (≈ 1.83 µM)

C[C@H]1[C@H](NC(=O)/C(=N\OC(C)(C)C(=O)O)c2csc(N)n2)C(=O)N1S(=O)(=O)O [AZTREONAM]
Activity (Pseudomonas aeruginosa [19]): inactive
MIC (Escherichia coli [20]): ≤ 0.03 µg/mL
MIC (Pseudomonas aeruginosa [1]): 128 µg/mL (≈ 294 µM)
MIC (Klebsiella pneumoniae [21]): 32 µg/mL (≈ 73.5 µM)
MIC (Pseudomonas aeruginosa [22]): 32 µg/mL
MIC (Pseudomonas aeruginosa [23]): 8 µg/mL
MIC (Pseudomonas aeruginosa [2]): > 256 µg/mL
Activity (Pseudomonas aeruginosa [24]): inactive
MIC (Pseudomonas aeruginosa [25]): 64 µg/mL
MIC (Pseudomonas aeruginosa [4]): 32 µg/mL (≈ 73.5 µM)
MIC (Pseudomonas aeruginosa [6]): 128 µg/mL (≈ 294 µM)
MIC (Pseudomonas aeruginosa [7]): 64 µg/mL (≈ 147 µM)
MIC (Klebsiella pneumoniae [26]): 4 µg/mL (≈ 9.19 µM)
MIC (Klebsiella pneumoniae [27]): > 128 µg/mL
Activity (Pseudomonas aeruginosa [28]): 30%
MIC (Pseudomonas aeruginosa [29]): 32 µg/mL
MIC (Pseudomonas aeruginosa [30]): 8 µg/mL
MIC (Pseudomonas aeruginosa [8]): 32 µg/mL (≈ 73.5 µM)
Activity (Pseudomonas aeruginosa [31]): inactive
MIC (Pseudomonas aeruginosa [32]): 4 µg/mL (≈ 9.19 µM)
MIC (Pseudomonas aeruginosa [9]): 8 µg/mL (≈ 18.4 µM)
MIC (Pseudomonas aeruginosa [10]): 64 µg/mL (≈ 147 µM)
MIC (Pseudomonas aeruginosa [11]): 64 µg/mL (≈ 147 µM)
MIC (Pseudomonas aeruginosa [12]): > 256 µg/mL
MIC (Pseudomonas aeruginosa [13]): 8 µg/mL (≈ 18.4 µM)
MIC (Escherichia coli [33]): 4 µg/mL (≈ 9.19 µM)
MIC (Pseudomonas aeruginosa [14]): 32 µg/mL (≈ 73.5 µM)
MIC (Pseudomonas aeruginosa [15]): 64 µg/mL (≈ 147 µM)
MIC (Escherichia coli [34]): 4 µg/mL (≈ 9.19 µM)
MIC (Pseudomonas aeruginosa [35]): 8 µg/mL
MIC (Pseudomonas aeruginosa [36]): 8 µg/mL
MIC (Pseudomonas aeruginosa [17]): 64 µg/mL (≈ 147 µM)
MIC (Escherichia coli [37]): 0.06 µg/mL (≈ 0.138 µM)
MIC (Pseudomonas aeruginosa [18]): 32 µg/mL (≈ 73.5 µM)
MIC (Klebsiella pneumoniae [38]): 0.25 µg/mL (≈ 0.574 µM)
MIC (Pseudomonas aeruginosa [39]): 64 µg/mL

C[C@@H](O)[C@H]1C(=O)N2C(C(=O)O)=C(SCCNC=N)C[C@H]12 [IMIPENEM ANHYDROUS]
MIC (Pseudomonas aeruginosa [1]): 32 µg/mL (≈ 107 µM)
MIC (Pseudomonas aeruginosa [2]): 16 µg/mL (≈ 53.4 µM)
MIC (Pseudomonas aeruginosa [3]): 16 µg/mL (≈ 53.4 µM)
MIC (Pseudomonas aeruginosa [4]): 128 µg/mL (≈ 428 µM)
MIC (Pseudomonas aeruginosa [5]): 1 µg/mL (≈ 3.34 µM)
MIC (Pseudomonas aeruginosa [6]): 32 µg/mL (≈ 107 µM)
MIC (Pseudomonas aeruginosa [7]): 64 µg/mL (≈ 214 µM)
MIC (Pseudomonas aeruginosa [8]): 4 µg/mL (≈ 13.4 µM)
MIC (Pseudomonas aeruginosa [9]): 1 µg/mL (≈ 3.34 µM)
MIC (Pseudomonas aeruginosa [10]): 64 µg/mL (≈ 214 µM)
MIC (Pseudomonas aeruginosa [11]): 32 µg/mL (≈ 107 µM)
MIC (Pseudomonas aeruginosa [12]): 16 µg/mL (≈ 53.4 µM)
MIC (Pseudomonas aeruginosa [13]): 8 µg/mL (≈ 26.7 µM)
MIC (Pseudomonas aeruginosa [14]): 32 µg/mL (≈ 107 µM)
MIC (Pseudomonas aeruginosa [15]): 8 µg/mL (≈ 26.7 µM)
MIC (Pseudomonas aeruginosa [16]): 32 µg/mL (≈ 107 µM)
MIC (Pseudomonas aeruginosa [17]): 16 µg/mL (≈ 53.4 µM)
MIC (Pseudomonas aeruginosa [18]): 0.5 µg/mL (≈ 1.67 µM)

C[C@@H](O)[C@H]1C(=O)N2C(C(=O)O)=C(S[C@@H]3CN[C@H](C(=O)N(C)C)C3)[C@H](C)[C@H]12 [MEROPENEM]
MIC (Pseudomonas aeruginosa [1]): 128 µg/mL (≈ 334 µM)
MIC (Pseudomonas aeruginosa [2]): 16 µg/mL (≈ 41.7 µM)
MIC (Pseudomonas aeruginosa [3]): 16 µg/mL (≈ 41.7 µM)
MIC (Pseudomonas aeruginosa [4]): > 256 µg/mL
MIC (Pseudomonas aeruginosa [5]): 0.5 µg/mL (≈ 1.3 µM)
MIC (Pseudomonas aeruginosa [6]): 128 µg/mL (≈ 334 µM)
MIC (Pseudomonas aeruginosa [7]): 32 µg/mL (≈ 83.4 µM)
MIC (Pseudomonas aeruginosa [8]): 128 µg/mL (≈ 334 µM)
MIC (Pseudomonas aeruginosa [9]): 1 µg/mL (≈ 2.61 µM)
MIC (Pseudomonas aeruginosa [10]): 16 µg/mL (≈ 41.7 µM)
MIC (Pseudomonas aeruginosa [11]): 32 µg/mL (≈ 83.4 µM)
MIC (Pseudomonas aeruginosa [12]): 2 µg/mL (≈ 5.22 µM)
MIC (Pseudomonas aeruginosa [13]): 2 µg/mL (≈ 5.22 µM)
MIC (Pseudomonas aeruginosa [14]): 32 µg/mL (≈ 83.4 µM)
MIC (Pseudomonas aeruginosa [15]): 1 µg/mL (≈ 2.61 µM)
MIC (Pseudomonas aeruginosa [16]): 16 µg/mL (≈ 41.7 µM)
MIC (Pseudomonas aeruginosa [17]): 16 µg/mL (≈ 41.7 µM)
MIC (Pseudomonas aeruginosa [18]): 0.125 µg/mL (≈ 0.326 µM)
